# Assay results from patent publication US20140137294A1, “GLUCOSINOLATE TRANSPORTER PROTEIN AND USES THEREOF” (UNIVERSITY OF COPENHAGEN, priority 2010, published 2014).
# Target: T1, AtGTR1 (Arabidopsis thaliana, UniProt Q944G5)
# T1 construct: A library of Arabidopsis transporters available as full length cDNAs from the RIKEN bioresource center; expressed in transfected cells; host or cells: Xenopus oocytes injected with in vitro transcribed cRNA
# T1 sequence (Q944G5 31-636 limits assumed): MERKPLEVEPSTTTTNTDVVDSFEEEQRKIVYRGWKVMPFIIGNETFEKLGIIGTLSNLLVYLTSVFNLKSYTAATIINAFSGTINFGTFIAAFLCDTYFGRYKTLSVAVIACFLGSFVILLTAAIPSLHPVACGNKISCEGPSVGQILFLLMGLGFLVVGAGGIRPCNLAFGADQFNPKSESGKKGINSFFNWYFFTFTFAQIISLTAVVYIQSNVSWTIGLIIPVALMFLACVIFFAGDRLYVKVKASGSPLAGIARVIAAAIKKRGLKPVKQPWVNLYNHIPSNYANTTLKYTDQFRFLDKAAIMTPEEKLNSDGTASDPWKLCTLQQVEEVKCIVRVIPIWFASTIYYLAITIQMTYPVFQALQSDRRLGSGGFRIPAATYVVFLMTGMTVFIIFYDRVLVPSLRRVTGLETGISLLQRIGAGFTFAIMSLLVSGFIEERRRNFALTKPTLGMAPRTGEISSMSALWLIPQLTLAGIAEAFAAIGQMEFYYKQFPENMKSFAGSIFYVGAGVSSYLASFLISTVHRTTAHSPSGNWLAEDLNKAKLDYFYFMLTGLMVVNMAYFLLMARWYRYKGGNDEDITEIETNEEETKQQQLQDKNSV
# Experiment: Uptake of C14-labeled pOHBG in AtGTR1 expressing oocytes in presence of excess competitor
# Type: cell-based
# Settings: 50× excess unlabeled competitor, AtGTR1, pH 5
# Procedure: FIG. 3: Biochemical analysis of AtGTR1 and 2 mediated GSL transport in Xenopus oocytes. A and B, pH dependence of AtGTR-mediated GSL transport. A, AtGTR2 mediated 4-MTB uptake measured by LC-MS analysis of oocyte extracts, n=3 oocytes. B, AtGTR1 currents induced by 1 mM 4-MTB were measured at different membrane potentials at pH 5 ([…]), pH 6 (♦), and pH 7 (▴). Currents were normalized to the current induced at pH 5 at −60 mV, error bars are SD, n=4 oocytes. C and D, kinetic analysis of AtGTR-mediated glucosinolate transport. […]
# The substrate specificity investigations were extended to include substrates previously identified for the NRT/PTR transporter family namely di- and tripeptides and nitrate. […] However, perfusing with 1 mM NO3^− did result in currents but these amounted only to 1/10th of currents measured when perfusing with 100 μM 4-MTB (FIG. 3F). […]
# For assays with radiolabeled substrates, single oocytes were ruptured in 100 μl 10% SDS in 4 ml scintillation vials by shaking for 20-30 minutes. 2.5 ml EcoScint™ scintillation fluid (National Diagnostics) was added, and imported compounds quantified by scintillation counting. For assays with unlabeled substrates, oocyte extracts were analysed by LC-MS. Oocytes were analyzed in batches of 5 oocytes per repetition. […]
smiles,measurement,value
"CSCCCC/C(=N/OS(=O)(=O)O)S[C@@H]1O[C@H](CO)[C@@H](O)[C@H](O)[C@H]1O [4-MTB, 4-methylthiobutyl glucosinolate]",effect on uptake of 40 μM C14-labeled pOHBG,reduced the uptake of pOHBG to background levels
